# ChEMBL document CHEMBL1201862, “PubChem BioAssay data set” (2004)
# The source made the active and inactive calls.
# Columns and labels:
# [1] = target: FAD-linked sulfhydryl oxidase ALR (Homo sapiens, UniProt P55789); experiment: inhibitors of human ALR sulfhydryl oxidase, dose response, biochemical, H2O2 detection, luminescence, cherry-pick (AID 493248)
# [2] = MC4R antagonists, dose response, counter-screen for LGR2 antagonist project, cell-based, plate reader, cherry pick (AID 743444); assay type: functional;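 note: transfected HEK 293 cells stimulated with alpha-MSH peptide; potency of inhibitors of the alpha-MSH evoked signal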
# [3] = LGR2 antagonists, dose response, cell-based, HEK293, CRE-luciferase reporter, cherry pick, set 2 (AID 743343); assay type: functional;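 note: transfected cells were stimulated with diluted bursicon conditioned medium after compound addition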
# [4] = A549 cell cytotoxicity, dose response, cytotoxicity control, plate reader, cherry-pick, antagonist series (AID 743412); assay type: functional, cell-based
# [5] = target: T1, Calpain-2 catalytic subunit (Sus scrofa, UniProt P43367); experiment: pig calpain II inhibitor potency, dose response, biochemical, fluorogenic peptide substrate (AID 1420); assay type: functional
# T1 sequence (P43367 whole entry): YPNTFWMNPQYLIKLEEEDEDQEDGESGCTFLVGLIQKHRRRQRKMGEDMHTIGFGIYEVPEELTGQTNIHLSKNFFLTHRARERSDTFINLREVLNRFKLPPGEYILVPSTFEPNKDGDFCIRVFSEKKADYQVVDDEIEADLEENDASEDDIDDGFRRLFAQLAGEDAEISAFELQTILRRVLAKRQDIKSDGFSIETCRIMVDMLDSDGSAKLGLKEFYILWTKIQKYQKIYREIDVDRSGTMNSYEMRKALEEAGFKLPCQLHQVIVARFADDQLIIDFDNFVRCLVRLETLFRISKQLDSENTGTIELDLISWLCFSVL
# [6] = tested on: Streptococcus sp. 'group A'; experiment: growth inhibition of control SK(-) GAS strain, dose response, counter-screen for streptokinase expression inhibitor project, luminescence, kanamycin, BacTiterGlo, confirmation (AID 1900); assay type: functional, organism-based
# [7] = tested on: Streptococcus; experiment: Group A Streptococcus viability loss, dose response, counter-screen for streptokinase expression inhibitor project, luminescence, BacTiterGlo (AID 1915); assay type: functional, organism-based;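 note: potency for reduction of bacterial viability or growth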
# [8] = target: Genome polyprotein (dengue virus type 2, UniProt P29990); experiment: Dengue-2 NS5 methyltransferase inhibitors, primary screen, biochemical, confirmation dose response (AID 588689); assay type: functional
# [9] = cytotoxicity toward DRD oncogenic fibroblasts, dose response, cell-based, non-viral oncogenic, luminescence (AID 1934); assay type: functional; settings: Homo sapiens
# [10] = tested on: BJ; experiment: cytotoxicity toward BJ-TERT-LT-ST fibroblasts, dose response, cell-based, RAS-independent, luminescence (AID 1935); assay type: functional; settings: Homo sapiens;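 note: BJ fibroblasts immortalized with TERT plus LT and ST oncogenes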
# [11] = tested on: BJ; experiment: cells; assay type: functional, cell-based; settings: Homo sapiens
# [12] = tested on: BJ; experiment: cytotoxicity toward BJ-TERT fibroblasts, dose response, cell-based, RAS-independent, luminescence (AID 1933); assay type: functional; settings: Homo sapiens
# [13] = target: T2, Polyadenylate-binding protein 1 (Homo sapiens, UniProt P11940); experiment: PABP1 MLLE–PAM2 interaction inhibitors, dose response, miRNA deadenylation inhibitor project, biochemical, fluorescence polarization, Cy5-PAM2 peptide, secondary (AID 602260); assay type: functional; settings: read-out: IC50_Mean
# [14] = target: T2, Polyadenylate-binding protein 1; experiment: PABP1 MLLE–PAM2 binding inhibitor potency, dose response, biochemical, fluorescence polarization, FITC-PAM2 peptide (AID 602259); assay type: functional; settings: read-out: IC50_Mean
# [15] = target: T3, Fatty acid synthase (Homo sapiens, UniProt P49327); experiment: FAS thioesterase domain inhibitors, dose response, biochemical, kinetic fluorescence intensity (AID 624326); assay type: functional;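 note: rate of fluorescence rise from hydrolysis of a fluorogenic O-methyl fluorescein ester substrate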
# [16] = target: T3, Fatty acid synthase; experiment: FAS thioesterase domain inhibitors, dose response, biochemical, endpoint fluorescence intensity, uHTS hits (AID 624327); assay type: functional;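 note: fluorescence from hydrolysis of an O-methyl fluorescein acyl ester substrate by the enzyme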
# [17] = cells; assay type: functional, cell-based
# [18] = cells; assay type: functional, cell-based; remark: listed apart in the source
# [19] = target: Nonstructural protein 1 (Influenza A virus, UniProt Q194T2); assay type: functional, Influenza A virus (A/California/07/2009(H1N1))
# [20] = THP-1 cell cytotoxicity, dose response, cytotoxicity control for non-replicating M. tuberculosis project (AID 489025); assay type: functional
# [21] = target: Glucose-6-phosphate 1-dehydrogenase (Homo sapiens, UniProt P11413); experiment: human G6PD enzyme inhibitors, dose response, selectivity assay for P. falciparum G6PD inhibitor project, biochemical, fluorescence (AID 504792); assay type: functional
# [22] = target: T4, Streptokinase A (Streptococcus pyogenes serotype M1, UniProt P10520); experiment: S. pyogenes streptokinase expression inhibitors, potency, dose response, plasminogen activation absorbance, OD405 (AID 1914); assay type: functional, Streptococcus pyogenes M1 GAS;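 note: secreted streptokinase activity via plasminogen activation per viability signal from cell pellet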
# T4 sequence (P10520 whole entry): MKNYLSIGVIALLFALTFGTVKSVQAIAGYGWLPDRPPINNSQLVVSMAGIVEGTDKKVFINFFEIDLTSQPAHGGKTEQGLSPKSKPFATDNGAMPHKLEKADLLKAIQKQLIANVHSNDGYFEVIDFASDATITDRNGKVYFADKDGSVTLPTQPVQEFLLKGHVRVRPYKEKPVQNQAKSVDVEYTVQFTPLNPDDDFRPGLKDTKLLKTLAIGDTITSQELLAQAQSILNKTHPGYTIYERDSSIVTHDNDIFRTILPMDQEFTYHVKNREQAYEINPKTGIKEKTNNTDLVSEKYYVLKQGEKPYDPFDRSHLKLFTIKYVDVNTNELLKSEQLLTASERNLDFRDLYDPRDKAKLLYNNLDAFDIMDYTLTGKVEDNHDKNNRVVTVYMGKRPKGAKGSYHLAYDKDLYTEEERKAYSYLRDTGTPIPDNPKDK
# [23] = Shn3 3'UTR reporter inhibitors, dose response, cell-based, Clone20 osteoblasts, firefly luciferase, cherry-picked (AID 624132); assay type: functional;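 note: firefly luciferase luminescence from reporter carrying the Shn3 3'UTR in osteoblasts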
# [24] = control 3'UTR Renilla luciferase suppression, dose response, counter-screen for Shn3 inhibitor project, cell-based, Clone20-Shn3RL, cherry-picked (AID 624133); assay type: functional
# Chain of FAD-linked sulfhydryl oxidase ALR (P55789 whole entry): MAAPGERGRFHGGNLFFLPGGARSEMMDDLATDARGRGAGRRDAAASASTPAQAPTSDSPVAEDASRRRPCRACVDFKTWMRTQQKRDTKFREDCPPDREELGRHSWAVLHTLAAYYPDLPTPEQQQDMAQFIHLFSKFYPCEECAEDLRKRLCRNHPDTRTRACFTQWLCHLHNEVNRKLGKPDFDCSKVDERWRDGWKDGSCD
# T2 sequence (P11940 whole entry): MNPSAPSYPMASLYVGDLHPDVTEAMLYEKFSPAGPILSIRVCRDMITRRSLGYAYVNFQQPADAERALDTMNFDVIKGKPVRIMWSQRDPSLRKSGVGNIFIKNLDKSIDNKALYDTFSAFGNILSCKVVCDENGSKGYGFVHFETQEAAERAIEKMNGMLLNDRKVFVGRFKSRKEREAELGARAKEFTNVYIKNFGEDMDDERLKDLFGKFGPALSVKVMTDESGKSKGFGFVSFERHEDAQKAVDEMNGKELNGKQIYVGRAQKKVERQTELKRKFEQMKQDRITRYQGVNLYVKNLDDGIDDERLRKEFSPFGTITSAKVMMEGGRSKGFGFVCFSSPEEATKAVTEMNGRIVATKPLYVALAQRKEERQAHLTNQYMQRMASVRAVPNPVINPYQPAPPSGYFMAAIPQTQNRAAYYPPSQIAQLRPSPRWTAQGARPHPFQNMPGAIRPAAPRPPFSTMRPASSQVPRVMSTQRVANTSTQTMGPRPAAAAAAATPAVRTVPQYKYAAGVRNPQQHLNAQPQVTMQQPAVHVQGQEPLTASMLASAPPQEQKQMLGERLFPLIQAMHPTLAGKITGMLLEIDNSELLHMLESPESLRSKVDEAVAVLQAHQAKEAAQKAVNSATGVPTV
# Chain of Genome polyprotein (P29990 2492-3391 limits assumed): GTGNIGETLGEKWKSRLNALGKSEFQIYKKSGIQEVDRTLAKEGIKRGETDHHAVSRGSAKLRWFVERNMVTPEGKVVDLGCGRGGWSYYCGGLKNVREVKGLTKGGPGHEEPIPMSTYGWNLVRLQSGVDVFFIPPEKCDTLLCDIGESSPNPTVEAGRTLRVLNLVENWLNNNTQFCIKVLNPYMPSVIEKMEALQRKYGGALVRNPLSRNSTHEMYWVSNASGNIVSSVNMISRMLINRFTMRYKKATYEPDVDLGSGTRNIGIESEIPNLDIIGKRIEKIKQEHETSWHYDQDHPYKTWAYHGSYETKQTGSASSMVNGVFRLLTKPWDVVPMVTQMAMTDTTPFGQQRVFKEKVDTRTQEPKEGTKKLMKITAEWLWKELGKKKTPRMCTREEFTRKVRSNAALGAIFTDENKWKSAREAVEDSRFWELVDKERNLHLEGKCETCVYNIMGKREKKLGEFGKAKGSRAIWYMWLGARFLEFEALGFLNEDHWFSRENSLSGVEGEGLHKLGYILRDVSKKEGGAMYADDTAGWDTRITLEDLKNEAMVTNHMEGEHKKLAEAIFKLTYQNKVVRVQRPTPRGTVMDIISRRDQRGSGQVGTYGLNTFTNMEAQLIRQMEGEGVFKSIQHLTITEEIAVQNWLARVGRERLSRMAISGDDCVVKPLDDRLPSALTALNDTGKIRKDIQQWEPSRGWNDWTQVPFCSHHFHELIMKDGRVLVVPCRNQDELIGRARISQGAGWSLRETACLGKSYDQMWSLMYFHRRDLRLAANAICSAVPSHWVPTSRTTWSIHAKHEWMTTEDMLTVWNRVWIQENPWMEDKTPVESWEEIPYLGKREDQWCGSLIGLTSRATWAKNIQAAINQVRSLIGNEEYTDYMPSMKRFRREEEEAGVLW
# T3 sequence (P49327 whole entry, the tested form may be a part): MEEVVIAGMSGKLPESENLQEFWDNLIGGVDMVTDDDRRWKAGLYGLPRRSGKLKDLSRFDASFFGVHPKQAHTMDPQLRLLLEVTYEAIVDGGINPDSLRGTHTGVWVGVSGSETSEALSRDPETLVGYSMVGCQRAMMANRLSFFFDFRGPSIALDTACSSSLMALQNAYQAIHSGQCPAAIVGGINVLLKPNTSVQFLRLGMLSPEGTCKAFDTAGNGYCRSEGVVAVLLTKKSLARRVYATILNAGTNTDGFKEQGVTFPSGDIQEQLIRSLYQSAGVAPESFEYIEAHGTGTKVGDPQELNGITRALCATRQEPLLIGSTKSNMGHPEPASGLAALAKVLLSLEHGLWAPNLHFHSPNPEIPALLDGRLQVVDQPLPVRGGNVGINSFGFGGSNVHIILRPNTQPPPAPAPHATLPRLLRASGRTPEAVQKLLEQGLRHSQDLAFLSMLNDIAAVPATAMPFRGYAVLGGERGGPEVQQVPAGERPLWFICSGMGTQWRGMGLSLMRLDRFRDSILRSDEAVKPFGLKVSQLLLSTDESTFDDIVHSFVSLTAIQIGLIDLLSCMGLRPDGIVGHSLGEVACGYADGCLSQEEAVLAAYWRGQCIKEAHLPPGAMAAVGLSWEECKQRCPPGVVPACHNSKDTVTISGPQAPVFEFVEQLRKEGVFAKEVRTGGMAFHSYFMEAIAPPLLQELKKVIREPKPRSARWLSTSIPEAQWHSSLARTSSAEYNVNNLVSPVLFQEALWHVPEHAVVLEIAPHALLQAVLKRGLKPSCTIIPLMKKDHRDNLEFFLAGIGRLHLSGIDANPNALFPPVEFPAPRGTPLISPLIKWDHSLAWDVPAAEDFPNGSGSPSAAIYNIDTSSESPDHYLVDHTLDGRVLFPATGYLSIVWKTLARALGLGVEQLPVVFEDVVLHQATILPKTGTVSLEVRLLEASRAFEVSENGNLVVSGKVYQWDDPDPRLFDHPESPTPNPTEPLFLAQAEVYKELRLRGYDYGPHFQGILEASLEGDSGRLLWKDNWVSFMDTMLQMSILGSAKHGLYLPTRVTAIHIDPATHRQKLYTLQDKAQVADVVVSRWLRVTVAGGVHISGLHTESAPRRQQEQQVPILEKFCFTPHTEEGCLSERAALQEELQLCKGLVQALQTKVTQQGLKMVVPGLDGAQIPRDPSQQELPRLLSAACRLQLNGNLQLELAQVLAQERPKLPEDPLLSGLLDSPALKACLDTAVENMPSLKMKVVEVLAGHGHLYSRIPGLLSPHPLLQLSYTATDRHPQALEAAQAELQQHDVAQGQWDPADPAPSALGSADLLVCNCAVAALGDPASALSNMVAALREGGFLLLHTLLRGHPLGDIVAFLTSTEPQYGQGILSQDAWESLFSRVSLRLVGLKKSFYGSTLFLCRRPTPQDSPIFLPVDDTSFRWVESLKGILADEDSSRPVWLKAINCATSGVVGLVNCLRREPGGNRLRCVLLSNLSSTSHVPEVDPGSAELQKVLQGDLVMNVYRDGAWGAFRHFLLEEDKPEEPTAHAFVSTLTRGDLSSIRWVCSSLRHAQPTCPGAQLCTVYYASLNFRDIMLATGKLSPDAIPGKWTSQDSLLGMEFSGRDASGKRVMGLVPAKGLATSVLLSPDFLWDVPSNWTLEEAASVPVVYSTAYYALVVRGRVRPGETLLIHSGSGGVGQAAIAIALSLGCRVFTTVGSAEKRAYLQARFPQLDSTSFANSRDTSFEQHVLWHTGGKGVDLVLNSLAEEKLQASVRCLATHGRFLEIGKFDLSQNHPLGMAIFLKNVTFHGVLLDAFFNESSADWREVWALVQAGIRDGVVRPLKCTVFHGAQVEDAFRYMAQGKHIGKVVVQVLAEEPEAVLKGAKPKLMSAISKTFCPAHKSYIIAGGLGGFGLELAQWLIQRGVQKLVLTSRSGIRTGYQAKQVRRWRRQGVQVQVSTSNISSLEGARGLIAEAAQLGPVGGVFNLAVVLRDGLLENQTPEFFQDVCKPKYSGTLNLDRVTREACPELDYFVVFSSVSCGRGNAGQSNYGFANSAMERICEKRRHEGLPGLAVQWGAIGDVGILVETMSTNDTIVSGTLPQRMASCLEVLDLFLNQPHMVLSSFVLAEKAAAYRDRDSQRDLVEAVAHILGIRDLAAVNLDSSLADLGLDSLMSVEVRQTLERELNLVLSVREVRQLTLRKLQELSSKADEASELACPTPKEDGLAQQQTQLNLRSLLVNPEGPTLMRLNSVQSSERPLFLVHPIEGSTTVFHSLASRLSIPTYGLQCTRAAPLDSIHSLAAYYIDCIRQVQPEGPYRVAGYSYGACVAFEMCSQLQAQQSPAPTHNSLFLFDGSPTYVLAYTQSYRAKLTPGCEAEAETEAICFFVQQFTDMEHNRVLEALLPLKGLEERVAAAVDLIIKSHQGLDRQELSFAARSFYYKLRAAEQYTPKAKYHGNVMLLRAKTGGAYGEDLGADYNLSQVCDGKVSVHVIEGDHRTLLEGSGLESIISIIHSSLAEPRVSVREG
# Chain of Nonstructural protein 1 (Q194T2 whole entry): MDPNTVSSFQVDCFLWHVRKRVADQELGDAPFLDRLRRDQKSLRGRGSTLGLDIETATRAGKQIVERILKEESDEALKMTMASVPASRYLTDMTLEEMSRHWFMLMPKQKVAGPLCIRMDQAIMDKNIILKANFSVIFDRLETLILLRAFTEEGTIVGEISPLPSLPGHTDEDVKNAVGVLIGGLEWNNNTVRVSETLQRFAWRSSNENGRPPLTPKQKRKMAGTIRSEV
# Chain of Glucose-6-phosphate 1-dehydrogenase (P11413 whole entry): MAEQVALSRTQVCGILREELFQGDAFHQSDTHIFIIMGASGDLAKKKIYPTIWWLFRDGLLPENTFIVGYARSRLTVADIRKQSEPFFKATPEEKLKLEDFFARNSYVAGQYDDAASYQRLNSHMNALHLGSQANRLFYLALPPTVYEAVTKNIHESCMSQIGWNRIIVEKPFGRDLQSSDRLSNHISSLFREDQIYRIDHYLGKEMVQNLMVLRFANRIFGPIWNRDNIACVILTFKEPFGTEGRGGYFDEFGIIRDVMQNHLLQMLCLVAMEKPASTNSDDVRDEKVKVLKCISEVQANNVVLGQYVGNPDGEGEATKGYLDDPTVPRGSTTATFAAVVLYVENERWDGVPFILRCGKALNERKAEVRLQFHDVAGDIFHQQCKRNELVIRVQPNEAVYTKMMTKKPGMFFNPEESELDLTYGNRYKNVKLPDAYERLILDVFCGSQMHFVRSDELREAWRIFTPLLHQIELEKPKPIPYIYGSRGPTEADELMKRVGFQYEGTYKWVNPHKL
smiles,measurement,setting,value
COc1ccc(N2CCN(C(=O)c3ccccc3N(C)S(=O)(=O)c3ccccc3)CC2)cc1,AC50,[1],8.08 µM (active)
CN(C)S(=O)(=O)c1cccc(NC(=O)COc2ccccc2C(=O)Nc2ccccc2)c1,AC50,[2],22.9 µM (active)
same,AC50,[3],20.1 µM (active)
same,AC50,[4],30.6 µM (active)
O=C1c2ccccc2C(=O)N1CCc1csc(-c2cccc(Cl)c2)n1,IC50,[5],3.44 µM (not active)
Cc1oc2c(c1C(=O)Nc1cccc3ccccc13)CCCC2,IC50,[5],> 50 µM (not active)
COc1ccc(Br)cc1/C=C/C(=O)NC(=S)Nc1ccc(Cl)c(C(=O)O)c1,EC50,[6],56.5 µM (active)
same,EC50,[7],5.98 µM (active)
same,IC50,[8],46.9 µM (active)
CCCN1C(=O)/C(=C\C=C2/Sc3ccccc3N2CC)SC1=S,EC50,[9],> 150 µM (not active)
same,EC50,[10],> 150 µM (inconclusive)
same,EC50,[11],> 150 µM (not active)
same,EC50,[12],> 150 µM (not active)
CC(=O)Nc1cc(C(=O)N2CCN(C)CC2)ccc1S(=O)(=O)c1ccc(C)cc1,IC50,[5],0.796 µM (not active)
N#CCCN(C(=S)NC(=O)c1ccco1)c1ccccc1F,IC50,[13],> 66 µM (inactive)
same,IC50,[14],> 66 µM (inactive)
CC(C)(C)c1ccc(C(=O)N/C(=C\c2cccc([N+](=O)[O-])c2)C(=O)Nc2cccc(C(=O)O)c2)cc1,IC50,[15],1.48 µM (active)
same,IC50,[16],2.44 µM (active)
CCOc1ccccc1CN1CCN(S(C)(=O)=O)CC1,EC50,[17],> 350 µM (not active)
same,EC50,[18],> 350 µM (not active)
Cc1nc(NC(=O)CCl)sc1C(=O)N(C)C,EC50,[9],28.3 µM (active)
same,EC50,[10],> 150 µM (not active)
same,EC50,[11],> 150 µM (not active)
same,EC50,[12],> 150 µM (not active)
COc1ccc(N2CCN(CCNC(=O)Nc3ccc([N+](=O)[O-])cc3OC)CC2)cc1,IC50,[19],> 100 µM (active)
same,AC50,[1],2.24 µM (active)
CCOC(=O)N1CCC(NS(=O)(=O)c2cc3c(cc2Cl)NC(=O)CO3)CC1,CC50,[20],33.4 µM (active)
S=C(NN=Cc1ccccn1)N(Cc1ccccn1)Cc1ccccn1,IC50,[19],1.59 µM (active)
same,IC50,[21],> 80 µM (inactive)
COc1ccc(N/N=C(\C#N)C(=N)N2CCCCC2)cc1,AC50,[1],0.077 µM (active)
O=C(COC(=O)CCc1ccccc1)Nc1cc([N+](=O)[O-])ccc1F,IC50,[15],6.27 µM (active)
same,IC50,[16],5.19 µM (active)
ON=CN=C(S)Nc1ncc(C(F)(F)F)cc1Cl,IC50,[13],> 66 µM (inactive)
same,IC50,[14],> 66 µM (inactive)
CCOC(=O)c1ccc(NC(=O)c2[nH]cnc2C(=O)N[C@@H](CCCCNC(=O)OC(C)(C)C)C(=O)OC(C)(C)C)cc1,EC50,[22],> 150 µM (not active)
same,EC50,[6],6.84 µM (active)
same,EC50,[7],55.6 µM (active)
same,IC50,[15],0.463 µM (active)
same,IC50,[16],0.539 µM (active)
CCCCC1=CC2=CC(=O)C(C)(OC(=O)CC)C(=O)C2=CN1CCCCO (stereo not drawn),IC50,[13],> 66 µM (inactive)
same,IC50,[14],> 66 µM (inactive)
O=C(CNC(=O)c1cccs1)OCC(=O)c1ccc([N+](=O)[O-])cc1,IC50,[21],> 80 µM (inactive)
CCN1CCN(c2cc(C)c3cc(NC(S)=NCc4cccs4)ccc3n2)CC1,IC50,[5],10 µM (not active)
S=C(Nc1ccc(Cl)cc1)Nc1ccc2c[nH]nc2c1,EC50,[17],> 350 µM (not active)
same,EC50,[18],> 350 µM (not active)
Cc1ccc([C@@H]2CC=C(C(=O)O)[C@H](c3ccc(Br)cc3)N2S(=O)(=O)c2ccccc2C)cc1,IC50,[8],34 µM (active)
COc1ccc(CNC(=O)c2ccc3c(c2)N(C)CCS3)cc1,AC50,[1],15.4 µM (active)
CCCN(CCC)S(=O)(=O)c1ccc(NC(=O)COc2ccccc2)cc1,IC50,[5],3.3 µM (not active)
CC(C)(C)OC(=O)NCCCCCNC(=O)c1[nH]cnc1C(=O)N[C@@H](CCCCNC(=O)OC(C)(C)C)C(=O)OC(C)(C)C,IC50,[5],10.7 µM (not active)
Cn1c(S)nnc1CNS(=O)(=O)c1ccc(Br)cc1,AC50,[1],4.95 µM (active)
CCC(C(=O)NC1CCCC1)N(Cc1ccco1)C(=O)Cn1nnc(-c2ccc(C)cc2)n1 (stereo not drawn),IC50,[5],16.3 µM (not active)
COCCN1CN(S(=O)(=O)c2ccccc2)c2nc3ccccc3nc21,IC50,[13],> 66 µM (inactive)
same,IC50,[14],55.4 µM (inactive)
CC(NC(=O)c1ccc(N(C)C)cc1)C(c1cccs1)N1CCN(C)CC1 (stereo not drawn),AC50,[1],1.24 µM (active)
CC(=O)c1cccc(NC(=S)NC(=O)c2ccc(Br)cc2)c1,IC50,[13],> 66 µM (inactive)
same,IC50,[14],> 66 µM (inactive)
COc1ccc(S(=O)(=O)Nc2nc3ccccc3nc2Nc2cccc(C(=O)O)c2)cc1,IC50,[8],34.5 µM (active)
CC(NC(=O)COC(=O)c1cc([N+](=O)[O-])ccc1N1CCOCC1)c1ccc(F)cc1 (stereo not drawn),IC50,[15],1.48 µM (active)
same,IC50,[16],1.95 µM (active)
COc1ccc(Cn2nc(-c3ccccc3)c(N3CCCCC3)cc2=O)cc1,IC50,[5],10.6 µM (not active)
Cc1ccc(NC2CCCN(C(=O)c3ccnc(Cl)c3)C2)cc1C (stereo not drawn),AC50,[1],3.32 µM (active)
O=C(CSc1ncnc2sc3c(c12)CCCC3)N1CCC(c2noc3ccc(F)cc23)CC1,EC50,[9],> 150 µM (not active)
same,EC50,[10],> 150 µM (not active)
same,EC50,[11],> 150 µM (not active)
same,EC50,[12],30.7 µM (active)
CCc1n[nH]c(C(=O)N2CCCC(Nc3ccc(C(C)C)cc3)C2)c1C (stereo not drawn),AC50,[1],3.61 µM (active)
O=C(O)c1ccccc1C(=O)c1ccc(N2CCOCC2)c([N+](=O)[O-])c1,EC50,[9],> 150 µM (not active)
same,EC50,[10],> 150 µM (not active)
same,EC50,[11],> 150 µM (not active)
same,EC50,[12],> 150 µM (not active)
Cc1csc(NC(=O)c2ccc(OCC3CCCO3)cc2)n1 (stereo not drawn),AC50,[2],1.96 µM (active)
same,AC50,[3],2.55 µM (active)
CCOC(=O)c1sc(NC(=O)CCCn2nc([N+](=O)[O-])c(Cl)c2C)c(C(=O)OCC)c1C,AC50,[23],6.34 µM (active)
same,AC50,[24],15.4 µM (active)
O=C(O)Cc1ccc(NCc2ccccc2Cl)cc1,AC50,[1],4.81 µM (active)
COc1ccc(CC2C(=O)N(C)C(=O)N(C)C2=O)c(OC)c1,IC50,[13],> 66 µM (inactive)
same,IC50,[14],> 66 µM (inactive)
CCOC(=O)CCNC(=O)Nc1ccc2nc(C)n(Cc3cccc(Cl)c3)c(=O)c2c1,IC50,[5],6.83 µM (not active)
